Measured values as given in paper PMC10053865 (2023).

Legend:
[1] = test system: Cocaine aptamer (ITO-supported sensor) (DNA, aptamer) GACAAGGAAAATCCTTCAACGAAGTGGGTC; test: square-wave voltammetry (60 Hz), Hill fit; settings: 137 mM NaCl, 2.7 mM KCl; 1x PBS pH 7.4, 23 °C; apparent; procaine hydrochloride
[2] = test system: Cocaine aptamer (Au-supported sensor) (DNA, aptamer) GACAAGGAAAATCCTTCAACGAAGTGGGTC; test: square-wave voltammetry (80 Hz), Hill fit; settings: 137 mM NaCl, 2.7 mM KCl; 1x PBS pH 7.4, 23 °C; apparent; procaine hydrochloride

KD-ITO [1]: 6.2 ± 0.6 mM | KD-Au [2]: 63.7 ± 9.3 mM
SMILES: CCN(CC)CCOC(=O)c1ccc(N)cc1
